Assay results reported in patent publication US20070020334A1, “Benzimidazole formulation” (priority 2005, published 2007).
Like-named read-outs stand apart in the source and are kept apart here.

Legend:
[1] = cited from earlier work; for pKa2 / pKa3 / pKa: approximate; for pKa: pKa of the acid
[2] = Particle size by laser light scattering (Malvern); format: physicochemical; settings: raw material of Table 7
Protocol: Samples have been dried for minimum 12 hours at 40° C. prior to the measurements.

Q: What does the source list for `N=C(N)NCCC[C@H](N)C(=O)O` [Arginine]?
A: pH ([1]; 100 g/L H2O): pH≈11.4; pKa2 [1]: pKa2: 9.1; pKa3 [1]: pKa3: 13.2

Q: For `O=C([O-])[O-].[Ca+2]` [Calcium carbonate], which pKa [1] is on record?
A: Its pKa is 10.3.

Q: With `O=C([O-])[O-].[Na+].[Na+]` [DiSodium carbonate] as the compound, how does the pKa [1] read?
A: The pKa was 10.3.

Q: Which results are given for `N[C@@H](Cc1c[nH]cn1)C(=O)O` [Histidine]?
A: pH ([1]; 10 g/L H2O): pH≈7.7; pKa3 [1]: pKa3: 9.0

Q: Which pKa2 [1] does the source give for `NCCCC[C@H](N)C(=O)O` [Lysine] here?
A: Its pKa2 is “pKa2: 8.9”.

Q: Which “D(v; 0.5)” value [2] does the source give for `COc1ccnc(C[S+]([O-])c2nc3ccc(OC(F)F)cc3[nH]2)c1OC` (stereo not drawn) [Pantoprazole sodium sesquihydrate] here?
A: Its value is 7 μm.
